According to article PMC6994103 (PLoS Neglected Tropical Diseases, 2020):
Several values for one entry are separate records, joined by “and”; a condition that tells them apart may be missing. Equal values may be shown once.

How the values were obtained:
[1] = test system: T. cruzi epimastigotes Y strain; assay: Synergism BZL with LTD-CPH-CFZ in epimastigotes, Y strain (CompuSyn); type: cell-based, Trypanosoma cruzi; settings: alone, same effect (Fa 0.981) as BZL 20.00 µM + LTD-CPH-CFZ 42.50 µM
Description: (§1) Parasites´ growth was evaluated at different concentrations of BZL, CV and CV structural analogues, and parasite proliferation was determined after 48 h. […] Growth was determined by counting in a Neubauer chamber and viability assays by using “Cell Titer 96 Aqueous One Solution Cell Proliferation Assay (MTS)” (Promega, Madison, WI, USA) according to the manufacturer’s instructions. Amastigotes were fixed with methanol, stained and mounted with Vectashield with DAPI (Vector Laboratories, Burlingame, CA, USA), and then the non-lysed cells were counted by using fluorescence microscopy. Calculations were performed using CompuSyn software (http://combosyn.com) which is based on the median-effect equation [48] and its extension, the combination index.

[2] = test system: T. cruzi trypomastigotes Y strain; assay: Synergism BZL with LTD-CPH-CFZ in trypomastigotes, Y strain (CompuSyn); type: cell-based, Trypanosoma cruzi
Description: as §1

[3] = test system: T. cruzi epimastigotes Dm28c strain; assay: Trypanocidal activity in epimastigotes, Dm28c strain; type: cell-based, Trypanosoma cruzi
Description: VERO cells (5 x10^4 per well) were infected with trypomastigotes (2.5 ×10^5 per well) for 4 h. After this period, the infected cells were washed twice with phosphate-buffered saline (PBS), the MEM medium was replaced, and the cells were kept in culture at 37°C, 5% CO2. In order to obtain intracellular amastigotes, the cells were lysed 4 days after infection using a cell scraper, collected, washed twice with PBS (or MEM) and counted using a hemocytometer. Trypomastigotes were obtained from infected VERO cells as previously described.
Epimastigotes of T. cruzi were cultured as described above, in 24-wells plate at a start density of 0.5 x10^7 cells/mL in BHT medium. Parasites´ growth was evaluated at different concentrations of BZL, CV and CV structural analogues, and parasite proliferation was determined after 48 h. Trypanocidal activity in trypomastigotes and amastigotes was performed using 1 x10^6 cells/mL in 96-well plates and incubating at 37°C for 24 h in the presence of the corresponding drug. Growth was determined by counting in a Neubauer chamber and viability assays by using “Cell Titer 96 Aqueous One Solution Cell Proliferation Assay (MTS)” (Promega, Madison, WI, USA) according to the manufacturer’s instructions. Amastigotes were fixed with methanol, stained and mounted with Vectashield with DAPI (Vector Laboratories, Burlingame, CA, USA), and then the non-lysed cells were counted by using fluorescence microscopy.

VERO cells = assay: Toxicity assay in VERO cells (gentian violet staining); type: cell-based, African green monkey; settings: IC50 in VERO cells / IC50 in trypomastigotes (Y strain)
Description: (§2) VERO cells (African green monkey Kidney, ATCC CCL-81) were cultured in MEM medium supplemented with 10% heat inactivated FCS, 0.15% (w/v) NaHCO3, 100 U/mL penicillin and 100 U/mL streptomycin at 37°C in 5% CO2.
(§3) The toxicity of the compounds was determined in VERO cells by the gentian violet staining assay. Briefly, the cells (1 x10^4 cells/well) were incubated in 96-well plates with the indicated compound or dimethyl sulfoxide (DMSO) as negative control and maintained at 37° C for 24 h. Then the cells were fixed for 15 min, and stained with 0.5% gentian violet. The absorbance was measured at 570 nm. The selectivity index (SI) was calculated for each CV analogue as the ratio between the IC50 obtained in mammalian cells and the IC50 in trypomastigotes. For the combined treatment, the results were presented as percentage of untreated cells.

[4] = as above; type: cell-based, African green monkey; settings: African green monkey, VERO cells, 24 h, read-out: viability of the VERO cells, percentage of untreated cells
Description: as §2, §3

O=C(Cn1ccnc1[N+](=O)[O-])NCc1ccccc1 [Benznidazole]
Dose BZL alone [1]: 1370.11 ± 265.72 µM | DRI BZL ([2]; BZL 0.50 µM + LTD-CPH-CFZ 3.00 µM (1/10 IC50)): 3.60 ± 0.06 | DRI BZL ([2]; BZL 0.50 µM + LTD-CPH-CFZ 6.00 µM (1/5 IC50)): 9.19 ± 1.16 | DRI BZL ([2]; BZL 0.50 µM + LTD-CPH-CFZ 7.50 µM (1/4 IC50)): 22.88 ± 3.02 | DRI BZL ([2]; BZL 0.50 µM + LTD-CPH-CFZ 10.00 µM (1/3 IC50)): 94.41 ± 15.96 | DRI BZL ([2]; BZL 1.00 µM + LTD-CPH-CFZ 3.00 µM (1/10 IC50)): 5.34 ± 0.30 | DRI BZL ([2]; BZL 1.00 µM + LTD-CPH-CFZ 6.00 µM (1/5 IC50)): 12.08 ± 1.16 | DRI BZL ([2]; BZL 1.00 µM + LTD-CPH-CFZ 7.50 µM (1/4 IC50), listed as BZL): 27 and 27.38 ± 2.15 | DRI BZL ([2]; BZL 1.00 µM + LTD-CPH-CFZ 10.00 µM (1/3 IC50)): 95.04 ± 0.83 | DRI BZL ([2]; BZL 5.00 µM + LTD-CPH-CFZ 3.00 µM (1/10 IC50)): 2.88 ± 0.54 | DRI BZL ([2]; BZL 5.00 µM + LTD-CPH-CFZ 6.00 µM (1/5 IC50)): 7.17 ± 1.62 | DRI BZL ([2]; BZL 5.00 µM + LTD-CPH-CFZ 7.50 µM (1/4 IC50)): 14.85 ± 6.05 | DRI BZL ([2]; BZL 5.00 µM + LTD-CPH-CFZ 10.00 µM (1/3 IC50)): 32.44 ± 3.71 | DRI BZL ([2]; BZL 10.00 µM + LTD-CPH-CFZ 3.00 µM (1/10 IC50)): 1.46 ± 0.23 | DRI BZL ([2]; BZL 10.00 µM + LTD-CPH-CFZ 6.00 µM (1/5 IC50)): 6.02 ± 1.15 | DRI BZL ([2]; BZL 10.00 µM + LTD-CPH-CFZ 7.50 µM (1/4 IC50)): 33.28 ± 1.72 | DRI BZL ([2]; BZL 10.00 µM + LTD-CPH-CFZ 10.00 µM (1/3 IC50)): 35.17 ± 4.38 | Dose BZL alone ([2]; same effect (Fa 0.226) as BZL 0.50 µM + LTD-CPH-CFZ 3.00 µM): 1.80 ± 0.03 µM | Dose BZL alone ([2]; same effect (Fa 0.417) as BZL 0.50 µM + LTD-CPH-CFZ 6.00 µM): 4.60 ± 0.58 µM | Dose BZL alone ([2]; same effect (Fa 0.452) as BZL 1.00 µM + LTD-CPH-CFZ 3.00 µM): 5.34 ± 0.30 µM | Dose BZL alone ([2]; same effect (Fa 0.631) as BZL 0.50 µM + LTD-CPH-CFZ 7.50 µM): 11.44 ± 1.51 µM | Dose BZL alone ([2]; same effect (Fa 0.643) as BZL 1.00 µM + LTD-CPH-CFZ 6.00 µM): 12.08 ± 1.16 µM | Dose BZL alone ([2]; same effect (Fa 0.679) as BZL 5.00 µM + LTD-CPH-CFZ 3.00 µM): 14.42 ± 2.70 µM | Dose BZL alone ([2]; same effect (Fa 0.702) as BZL 10.00 µM + LTD-CPH-CFZ 3.00 µM): 14.56 ± 2.33 µM | Dose BZL alone ([2]; same effect (Fa 0.798) as BZL 1.00 µM + LTD-CPH-CFZ 7.50 µM): 27.38 ± 2.15 µM | Dose BZL alone ([2]; same effect (Fa 0.833) as BZL 5.00 µM + LTD-CPH-CFZ 6.00 µM): 35.83 ± 8.10 µM | Dose BZL alone ([2]; same effect (Fa 0.869) as BZL 0.50 µM + LTD-CPH-CFZ 10.00 µM): 47.21 ± 7.98 µM | Dose BZL alone ([2]; same effect (Fa 0.893) as BZL 10.00 µM + LTD-CPH-CFZ 6.00 µM): 60.21 ± 11.50 µM | Dose BZL alone ([2]; same effect (Fa 0.905) as BZL 5.00 µM + LTD-CPH-CFZ 7.50 µM): 74.24 ± 30.25 µM | Dose BZL alone ([2]; same effect (Fa 0.929) as BZL 1.00 µM + LTD-CPH-CFZ 10.00 µM): 95.04 ± 0.83 µM | Dose BZL alone ([2]; same effect (Fa 0.976) as BZL 5.00 µM + LTD-CPH-CFZ 10.00 µM): 162.18 ± 18.57 µM | Dose BZL alone ([2]; same effect (Fa 0.988) as BZL 10.00 µM + LTD-CPH-CFZ 7.50 µM): 332.83 ± 17.17 µM | Dose BZL alone ([2]; same effect (Fa 0.988) as BZL 10.00 µM + LTD-CPH-CFZ 10.00 µM): 351.76 ± 43.93 µM | fold more resistant Dm28c vs CL Brener epimastigotes ([3]; Dm28c vs CL Brener): 1.2 fold | fold more sensitive Y vs Dm28c epimastigotes ([3]; Y vs Dm28c): 1.6 fold | Selectivity Index (VERO cells): >67 | viability at 24 h, 5 µM ([4]; BZL 5.0 µM + LTD-CPH-CFZ 0 µM): 96.6% | viability at 24 h, 10 µM ([4]; BZL 10.0 µM + LTD-CPH-CFZ 0 µM): 97.5% | viability at 24 h, 50 µM ([4]; BZL 50.0 µM + LTD-CPH-CFZ 0 µM): 95.7% | viability at 24 h, 100 µM ([4]; BZL 100.0 µM + LTD-CPH-CFZ 0 µM): 92.9%
